Measurements: patent US5859019A, “Methods for protecting against cardiac ischemia by administering adenosine A2a receptor antagonists” (priority 1997, dated 1999)

Tests used:
[1] = tested on: rat brain A1 and A2 receptors; settings: rat brain adenosine receptors, radioligand binding; cited from earlier work
[2] = tested on: ventricular cells cultured from chick embryos; assay: Hypoxia-induced injury / preconditioning of cultured ventricular cells (% cells killed, CK released); format: cell-based; settings: for Ability to replace preconditioning hypoxia (protection against injury by ninety-minute hypoxia; % cells killed, CK released): agent given for 5 min in place of preconditioning hypoxia, before 90-min hypoxia, adenosine 10 μM, R-PIA 10 μM; for Ability to replace preconditioning hypoxia (protection against injury by ninety-minute hypoxia; % cells killed, CK released) / Effect on protection by preconditioning hypoxia (% cells killed, CK released): CGS21680 1 μM; for Effect on protection by preconditioning hypoxia (% cells killed, CK released): agent present during five-minute preconditioning hypoxia, CSC 1 μM, 8-SPT 100 μM, isoproterenol 0.3 μM, forskolin 1 μM, BayK 8644 0.1 μM; for EC (maximal effect): Gallus gallus, agonist replacing preconditioning hypoxia, read-out: Concentration giving maximal preconditioning effect
Description: Ventricular cells were cultured from chick embryos 14 days in ovo, according to a previously described procedure (20, 27). Cells were plated at a density of 400,000 cells per ml and cultivated in a humidified 5% CO2 -95% air mixture at 37° C. […] For preconditioning studies, the medium was changed to a HEPES-buffered medium containing (mM) 139 NaCl, 4.7 KCl, 0.5 MgCl2, 0.9 CaCl2, 5 HEPES (N-2-hydroxyethylpiperazine-N'-2-ethanesulfonic acid) and 2% fetal bovine serum, pH=7.4, 37° C. before exposing cells to the various conditions at 37° C. Control cells were maintained in the HEPES-buffered media under room air. Hypoxia was produced by placing the cells in a hypoxic incubator (NuAire) where O2 was replaced by N2. The % O2 was monitored by both an oxygen Fyrite Gas Analyzer (Bacharach) and an oxygen analyzer (Model OX630, Engineered Systems & Designs). Preconditioning was induced by exposing the cells to five minutes of hypoxia, termed preconditioning hypoxia, prior to a second ninety-minute hypoxia. Cells not subjected to preconditioning were exposed to ninety minutes of hypoxia only (nonpreconditioned cells). The extracellular pH was similarly maintained at 7.4 by HEPES in both preconditioned and nonpreconditioned cells. Determination of basal level of cell injury was made after parallel incubation of control cells under normal % O2. For preconditioned and nonpreconditioned cells, determination of cell injury was made at the end of the ninety-minute hypoxic period.
The extent of hypoxia-induced injury to the ventricular cell was quantitatively determined by the percentages of cells killed and by the amount of creatine kinase (CK) released into the media. To quantitate the % cells killed, cells were exposed to a trypsin-EDTA Hanks' balanced salt solution for 10 minutes for detachment after the various treatment, followed by centrifugation (300 × g for 10 minutes) and resuspension in culture media for counting in a hemocytometer. Only live cells sedimented and the cells counted represented those that survived (29). None of the sedimented cells subsequently counted included trypan blue. […] There was no protein or CK in the culture media following a second 300 × g centrifugation of resuspended cells previously treated with trypsin-EDTA. […] In contrast, the trypsin-EDTA media from cells exposed to 90 minutes of hypoxia contained substantial amount of proteins (0.15±0.03 mg, n=9) and CK activity (16±3 unit/mg protein, n=8). […] Because trypsin may cause further proteolysis of proteins and CK, the amount of protein and CK retained by the damaged cells in the trypsin-EDTA media may not accurately reflect those associated with the damaged cells. In support of the notion that exposure to 90 minutes of hypoxia caused significant cell injury and loss of membrane integrity, there was also marked release of LDH (hypoxia-exposed cells, 35.5±2.7, unit/mg, n=8, ±S.E. vs. control cells, 6.1±0.4 unit/mg, n=8) and proteins (hypoxia-exposed cells, 0.15±0.03 mg, n=8 vs. control cells, 0.034±0.01 mg, n=8) from the cells incubated under prolonged hypoxia. Thus, the cell viability assay separated out the hypoxia-damaged from the control normoxia-exposed cells. […] The amount of CK was measured as enzyme activity (unit/mg), and increases in CK activity above the control level were determined. The percentage of cells killed was calculated as the number of cells obtained from the control group (representing cells not subjected to any hypoxia or drug treatment) minus the number of cells from the treatment group divided by number of cells in control group multiplied by 100%.
To investigate the role of adenosine in mediating the preconditioning effect, the ventricular cells, instead of being exposed to the brief hypoxia, were incubated with adenosine (10 μM) for 5 minutes prior to the ninety minute hypoxia. In adenosine-treated cells, media were replaced with adenosine-free media for ten minutes prior to a ninety-minute hypoxic exposure. […]

[3] = tested on: ventricular cells cultured from chick embryos; assay: 45Ca uptake in cultured ventricular cells; format: cell-based
Description: Determination of ^45 Ca uptake was made according to a modification of previously described method (20). Cultures were incubated with L-(3, 4, 5-^3 H, N)-leucine (152.2 Ci/mmol) for a 24 hour prior to ^45 Ca uptake. [^3 H] leucine incorporated into the cellular protein allowed normalization of ^45 Ca content to mg cell protein. After incubation with ^45 Ca-containing medium, cells were then washed free of ^45 Ca and solubilized for 2 hours with 1% sodium dodecyl sulfate and 10 mM sodium borate and the levels of ^3 H and ^45 Ca were determined. For all data comparing the effect of different agents on ^45 Ca uptake, one-way ANOVA analysis followed by group comparison with t-test was carried out at each time point of the ^45 Ca uptake. Cyclic AMP level was determined according to a previously described radioimmunoassay (27).

Structure (SMILES)	A1/A2 ratio (A2a receptor selectivity ratio) [1]	also measured
COc1ccccc1/C=C/c1nc2c(c(=O)n(C)c(=O)n2C)n1C [17b]	18	
COc1cccc(/C=C/c2nc3c(c(=O)n(C)c(=O)n3C)n2C)c1 [19b]	64	
Cn1c(=O)c2c(nc(/C=C/c3cccc(C(F)(F)F)c3)n2C)n(C)c1=O [20b]	25	
Cn1c(=O)c2c(nc(/C=C/c3cccc([N+](=O)[O-])c3)n2C)n(C)c1=O [21b]	11	
Cn1c(=O)c2c(nc(/C=C/c3cccc(N)c3)n2C)n(C)c1=O [22b]	30	
Cn1c(=O)c2c(nc(/C=C/c3cccc(F)c3)n2C)n(C)c1=O [27b]	190	
COc1ccc(/C=C/c2nc3c(c(=O)n(C)c(=O)n3C)n2C)cc1 [29b]	44	
COc1ccc(/C=C/c2nc3c(c(=O)n(C)c(=O)n3C)n2C)cc1OC [32b]	70	
COc1cc(/C=C/c2nc3c([nH]2)c(=O)n(C)c(=O)n3C)cc(OC)c1 [33a]	25	
COc1cc(/C=C/c2nc3c(c(=O)n(C)c(=O)n3C)n2C)cc(OC)c1 [33b]	> 200	
Cn1c(=O)c2c(nc(/C=C/c3cc(F)cc(F)c3)n2C)n(C)c1=O [34b]	230	
COc1ccc(/C=C/c2nc3c(c(=O)n(C)c(=O)n3C)n2C)c(OC)c1OC [43b]	34	
COc1cc(/C=C/c2nc3c(c(=O)n(C)c(=O)n3C)n2C)cc(OC)c1OC [44b]	70	
CCCn1c(=O)c2c(nc(/C=C/c3cc(OC)cc(OC)c3)n2C)n(CCC)c1=O [53b]	110	
Nc1ncnc2c1ncn2[C@@H]1O[C@H](CO)[C@@H](O)[C@H]1O [Adenosine, adenosine]		Ability to replace preconditioning hypoxia (protection against injury by ninety-minute hypoxia; % cells killed, CK released) [2]: significant attenuation of the injury
COC(=O)C1=C(C)NC(C)=C([N+](=O)[O-])C1c1ccccc1C(F)(F)F (stereo not shown) [BayK 8644]		Ability to replace preconditioning hypoxia (protection against injury by ninety-minute hypoxia; % cells killed, CK released) [2]: Neither isoproterenol, forskolin nor BayK8644 had any effect on the level of protection; Effect on protection by preconditioning hypoxia (% cells killed, CK released) [2]: caused an increase in % cells killed and amount of CK released; Calcium influx into the cultured cells ([3]; isoproterenol 0.3 μM, forskolin 1 μM, BayK 8644 0.1 μM, data not shown): induced increased calcium influx
CNC(=O)[C@H]1O[C@@H](n2cnc3c(NCc4cccc(I)c4)nc(Cl)nc32)[C@H](O)[C@@H]1O [C1-IB-MECA, 2-chloro-N^6-(3-iodobenzyl)adenosine-5'-N-methyluronamide]		EC (maximal effect) [2]: 0.1 µM; Ability to replace preconditioning hypoxia (protection against injury by ninety-minute hypoxia; % cells killed, CK released) [2]: can replace preconditioning hypoxia and simulate preconditioning

Structure (SMILES)	A1/A2 ratio (A2a receptor selectivity ratio) [1]	also measured
OC[C@H]1O[C@@H](n2cnc3c(NC4CCCC4)nc(Cl)nc32)[C@H](O)[C@@H]1O [CCPA]		EC (maximal effect) [2]: 0.1 µM; Ability to replace preconditioning hypoxia (protection against injury by ninety-minute hypoxia; % cells killed, CK released) [2]: can replace preconditioning hypoxia and simulate preconditioning
CCNC(=O)[C@H]1O[C@@H](n2cnc3c(N)nc(NCCc4ccc(CCC(=O)O)cc4)nc32)[C@H](O)[C@@H]1O [CGS21680, 2-[4-(2-carboxyethyl)phenylethylamino]-5'-N-ethylcarboxiamidoadenosine]		Ability to replace preconditioning hypoxia (protection against injury by ninety-minute hypoxia; % cells killed, CK released) [2]: could not; Effect on protection by preconditioning hypoxia (% cells killed, CK released) [2]: attenuated the protection; 45Ca uptake ([3]; after 90-second exposure to 45Ca-containing media, CGS21680 1 μM, control 4.2±0.1, ±S.D.): 5.8 ± 0.2 nmol/mg; 45Ca uptake, CGS21680 plus nifedipine ([3]; after 90-second exposure to 45Ca, CGS21680 1 μM plus nifedipine 1 μM, control 4.2±0.1, ±S.D.): 4.4 ± 0.1 nmol/mg
C[C@H](Cc1ccccc1)Nc1ncnc2c1ncn2[C@@H]1O[C@H](CO)[C@@H](O)[C@H]1O [R-PIA, N^6 -R-phenyl-2-propyl adenosine]		Ability to replace preconditioning hypoxia (protection against injury by ninety-minute hypoxia; % cells killed, CK released) [2]: could substitute for preconditioning hypoxia and induce preconditioning
CC(=O)Nc1cccc(/C=C/c2nc3c(c(=O)n(C)c(=O)n3C)n2C)c1 [compound 23]	240	
Cn1c(=O)c2c(nc(/C=C/c3cccc(NC(=O)CCC(=O)O)c3)n2C)n(C)c1=O [compound 24]	250	
Cn1c(=O)c2c(nc(/C=C/c3cccc(NC(=O)OC(C)(C)C)c3)n2C)n(C)c1=O [compound 25]	30	
Cn1c(=O)c2c(nc(/C=C/c3cccc(N(C(=O)OC(C)(C)C)C(=O)OC(C)(C)C)c3)n2C)n(C)c1=O [compound 26]	15	
Cn1c(=O)c2c(nc(/C=C/c3cccc(Cl)c3)n2C)n(C)c1=O [compound 28, 8-(3-chlorostyryl)caffeine]		Effect on R-PIA-induced preconditioning (% cells killed, CK released) ([2]; CSC present during 5-min treatment with 10 μM R-PIA, P<0.01): enhanced the preconditioning effect; Ability to replace preconditioning hypoxia (protection against injury by ninety-minute hypoxia; % cells killed, CK released) [2]: had no effect on the extent of injury; Effect on protection by preconditioning hypoxia (% cells killed, CK released) [2]: increased protection
COc1cc(/C=C/c2nc3c(c(=O)n(C)c(=O)n3C)n2C)cc(OC)c1O [compound 35]	19	
COc1cc(/C=C/c2nc3c(c(=O)n(C)c(=O)n3C)n2C)cc(OC)c1OC(C)=O [compound 36]	93	
COc1cc(/C=C/c2nc3c(c(=O)n(C)c(=O)n3C)n2C)cc(OC)c1OCc1ccccc1 [compound 37]	30	
COc1cc(/C=C/c2nc3c(c(=O)n(C)c(=O)n3C)n2C)cc(OC)c1OCCCCN [compound 38]	36	
COc1cc(/C=C/c2nc3c(c(=O)n(C)c(=O)n3C)n2C)cc(OC)c1OCCCCNC(=O)OC(C)(C)C [compound 39]	42	
COc1cc(/C=C/c2nc3c(c(=O)n(C)c(=O)n3C)n2C)cc(OC)c1OC/C=C/CN [compound 40]	28	
COc1cc(/C=C/c2nc3c(c(=O)n(C)c(=O)n3C)n2C)cc(OC)c1OC/C=C/CNC(C)=O [compound 41]	> 50	
COc1cc(/C=C/c2nc3c(c(=O)n(C)c(=O)n3C)n2C)cc(OC)c1OC/C=C/CNC(=O)OC(C)(C)C [compound 42]	> 40	
C=CCn1c(=O)c2c(nc(/C=C/c3cc(OC)c(OC)c(OC)c3)n2C)n(CC=C)c1=O [compound 46]	13	
